pIC50: −log10 of the molar value. Active and inactive are the calls of the source. The calls are words filed in the database; no cut-off is given here.
Key:
[1] = system: HCC1806; assay: Induction of intracellular reactive oxygen species generation in human HCC1806 cells at 200 nM incubated for 48 hrs in presence of ROS scavenger N-acetyl cysteine by DCFH2-DA staining based flow cytometeric analysis; assay type: functional, cell-based
[2] = system: HCC1806; assay: Induction of cell death in human HCC1806 cells at 200 nM incubated for 72 hrs in presence of necroptosis inhibitor necrostatin-1 by MTT assay; assay type: functional, cell-based
[3] = system: HCC1806; assay: Antitumor activity against human HCC1806 cells in ICR mouse assessed as reduction in tumor weight at 25 mg/kg, iv administered once per day for 23 consecutive days and measured every 2 days relative to control; assay type: functional; set-up: scale not given: the % may be the effect or the level left
[4] = system: MDA-MB-468; assay: Antiproliferative activity against human MDA-MB-468 cells after 72 hrs by MTT assay; assay type: functional, cell-based; conditions: MDA-MB-468, 72 h
[5] = biological target: Focal adhesion kinase 1 (Homo sapiens) (UniProt Q05397); assay: Inhibition of FAK phosphorylation at Tyr397 residue in human HCC1806 cells at 50 to 200 nM after 48 hrs by Western blot analysis; assay type: cell-based
Sequence of Focal adhesion kinase 1 (Homo sapiens) (Q05397 2-1052 limits assumed): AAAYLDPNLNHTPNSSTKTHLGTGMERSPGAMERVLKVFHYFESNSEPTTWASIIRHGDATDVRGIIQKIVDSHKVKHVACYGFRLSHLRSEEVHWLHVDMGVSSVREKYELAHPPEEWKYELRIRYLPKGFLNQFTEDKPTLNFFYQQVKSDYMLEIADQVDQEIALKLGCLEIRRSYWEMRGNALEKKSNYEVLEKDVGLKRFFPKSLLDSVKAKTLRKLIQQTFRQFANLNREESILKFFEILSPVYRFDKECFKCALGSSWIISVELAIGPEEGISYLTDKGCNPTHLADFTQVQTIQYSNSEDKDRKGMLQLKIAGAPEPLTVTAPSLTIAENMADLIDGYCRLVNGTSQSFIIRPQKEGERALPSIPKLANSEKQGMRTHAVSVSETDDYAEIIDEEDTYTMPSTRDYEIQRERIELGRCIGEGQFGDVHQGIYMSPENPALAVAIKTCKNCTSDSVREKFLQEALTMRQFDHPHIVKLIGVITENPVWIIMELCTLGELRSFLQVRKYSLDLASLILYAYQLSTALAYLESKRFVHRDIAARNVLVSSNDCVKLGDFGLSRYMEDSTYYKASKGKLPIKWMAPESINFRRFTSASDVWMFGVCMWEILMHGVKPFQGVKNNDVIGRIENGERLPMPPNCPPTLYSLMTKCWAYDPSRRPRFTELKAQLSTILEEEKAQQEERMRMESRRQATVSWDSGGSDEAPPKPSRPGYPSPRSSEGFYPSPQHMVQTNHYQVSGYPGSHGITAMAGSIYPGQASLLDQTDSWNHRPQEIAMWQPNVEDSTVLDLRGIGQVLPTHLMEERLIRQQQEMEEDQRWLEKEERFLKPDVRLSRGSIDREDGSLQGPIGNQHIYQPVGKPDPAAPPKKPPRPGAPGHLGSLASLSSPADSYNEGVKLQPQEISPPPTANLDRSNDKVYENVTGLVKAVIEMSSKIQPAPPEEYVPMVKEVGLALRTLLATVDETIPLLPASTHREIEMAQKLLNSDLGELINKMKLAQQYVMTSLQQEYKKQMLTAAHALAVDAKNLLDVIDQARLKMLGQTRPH

[6] = system: HCC1806; assay: Antitumor activity against human HCC1806 cells in ICR mouse assessed as increase in apoptosis in tumor at 12.5 to 25 mg/kg, iv administered once per day for 23 consecutive days by hematoxylin and eosin staining based histopathological assay; assay type: functional, organism-based
[7] = system: HCC1806; assay: Antimigratory activity against human HCC1806 cells assessed as reduction in MMP2 expression at 50 to 200 nM after 48 hrs by Western blot analysis; assay type: functional, cell-based
[8] = system: HCC1806; assay: Induction of intracellular reactive oxygen species generation in human HCC1806 cells incubated for 48 hrs by DCFH2-DA staining based flow cytometeric analysis; assay type: functional, cell-based
[9] = biological target: T1, M-phase inducer phosphatase 3 (Homo sapiens) (UniProt P30307); assay: Inhibition of cdc25c in human HCC1806 cells assessed as increase in cdc25c phosphorylation at ser216 residue by western blot analysis; assay type: cell-based
T1 sequence (whole entry): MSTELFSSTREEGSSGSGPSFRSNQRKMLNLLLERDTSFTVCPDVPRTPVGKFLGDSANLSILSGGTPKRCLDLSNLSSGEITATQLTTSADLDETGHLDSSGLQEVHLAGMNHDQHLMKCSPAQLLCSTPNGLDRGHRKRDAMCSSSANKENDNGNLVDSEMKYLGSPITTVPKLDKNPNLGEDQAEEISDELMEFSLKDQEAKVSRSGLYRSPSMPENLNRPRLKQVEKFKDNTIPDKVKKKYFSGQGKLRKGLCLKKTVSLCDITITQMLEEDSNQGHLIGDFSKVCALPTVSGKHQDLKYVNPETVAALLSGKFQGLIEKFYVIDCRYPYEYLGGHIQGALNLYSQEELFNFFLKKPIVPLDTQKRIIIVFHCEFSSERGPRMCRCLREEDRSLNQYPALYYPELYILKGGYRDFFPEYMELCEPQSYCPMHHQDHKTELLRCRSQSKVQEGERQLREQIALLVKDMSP

[10] = system: HCC1806; assay: Antitumor activity against human HCC1806 cells in ICR mouse assessed as reduction in tumor weight at 12.5 mg/kg, iv administered once per day for 23 consecutive days and measured every 2 days relative to control; assay type: functional; set-up: scale not given: the % may be the effect or the level left
[11] = Inhibition of PI3K/Akt/mTOR signalling pathway in human HCC1806 cells assessed as reduction in phosphorylated mTOR expression at S2448 residue after 48 hrs by Western blot analysis; assay type: cell-based
[12] = system: HCC1806; assay: Induction of cell cycle arrest in human HCC1806 cells assessed as accumulation at S phase at 200 nM after 48 hrs by propidium iodide staining based FACScan flow cytometry (reference value: 18.89%); assay type: functional
[13] = system: HCC1806; assay: Induction of apoptosis in human HCC1806 cells assessed as necrotic cells at 50 uM after 48 hrs by Annexin V-FITC/propidium iodide double staining based flow cytometry (reference value: 1.32%); assay type: functional
[14] = system: HCC1806; assay: Induction of intracellular reactive oxygen species generation in human HCC1806 cells assessed as accumulation of DCFH2-DA positive cells at 200 nM incubated for 48 hrs by flow cytometeric analysis (reference value: 3.53%); assay type: functional
[15] = system: HCC1806; assay: Antiproliferative activity against human HCC1806 cells after 72 hrs by MTT assay; assay type: functional, cell-based; conditions: HCC1806, 72 h
[16] = system: HCC1806; assay: Induction of apoptosis in human HCC1806 cells assessed as viable cells at 200 uM after 48 hrs by Annexin V-FITC/propidium iodide double staining based flow cytometry (reference value: 95.7%); assay type: functional; conditions: HCC1806, 48 h, read-out: Activity
[17] = system: HCC1806; assay: Induction of apoptosis in human HCC1806 cells assessed as necrotic cells at 100 uM after 48 hrs by Annexin V-FITC/propidium iodide double staining based flow cytometry (reference value: 1.32%); assay type: functional
[18] = system: SK-BR-3; assay: Antiproliferative activity against human SK-BR-3 cells after 72 hrs by MTT assay; assay type: functional, cell-based; conditions: SK-BR-3, 72 h
[19] = Toxicity in ICR mouse assessed as reduction in body weight at 12.5 to 25 mg/kg, iv administered once per day for 23 consecutive days and measured every 2 days; assay type: organism-based; conditions: in vivo, 48 h
[20] = Inhibition of PI3K/Akt/mTOR signalling pathway in human HCC1806 cells assessed as reduction in phosphorylated Akt expression at S473 residue after 48 hrs by Western blot analysis; assay type: cell-based
[21] = system: HCC1806; assay: Induction of apoptosis in human HCC1806 cells assessed as early apoptotic cells at 100 uM after 48 hrs by Annexin V-FITC/propidium iodide double staining based flow cytometry (reference value: 2.16%); assay type: functional
[22] = system: HCC1806; assay: Induction of apoptosis in human HCC1806 cells assessed as early apoptotic cells at 50 uM after 48 hrs by Annexin V-FITC/propidium iodide double staining based flow cytometry (reference value: 2.16%); assay type: functional
[23] = Inhibition of PI3K/Akt/mTOR signalling pathway in human HCC1806 cells assessed as reduction in phosphorylated PI3K expression at Y458 residue after 48 hrs by Western blot analysis; assay type: cell-based
[24] = system: HCC1806; assay: Induction of apoptosis in human HCC1806 cells after 48 hrs by Annexin V-FITC/propidium iodide double staining based flow cytometry; assay type: functional, cell-based
[25] = system: HCC1806; assay: Inhibition of cell adhesion in human HCC1806 cells incubated for 48 hrs by phase contrast microscopy; assay type: functional, cell-based
[26] = system: HCC1806; assay: Suppression of FAK expression in human HCC1806 cells at 50 to 200 nM after 48 hrs by Western blot assay; assay type: functional, cell-based
[27] = system: HCC1806; assay: Antitumor activity against human HCC1806 cells in ICR mouse assessed as increase in apoptosis in tumor at 12.5 to 25 mg/kg, iv administered once per day for 23 consecutive days by Ki67 staining-based immunohistochemical analysis; assay type: functional, organism-based
[28] = system: HCC1806; assay: Antitumor activity against human HCC1806 cells in ICR mouse assessed as tumor shrinkage at 12.5 to 25 mg/kg, iv administered once per day for 23 consecutive days by hematoxylin and eosin staining based histopathological assay; assay type: functional, organism-based
[29] = system: HCC1937; assay: Antiproliferative activity against human HCC1937 cells after 72 hrs by MTT assay; assay type: functional, cell-based; conditions: HCC1937, 72 h
[30] = system: HCC1806; assay: Antimigratory activity in human HCC1806 cells assessed as reduction in EGFR expression at 50 to 200 nM after 48 hrs by Western blot analysis; assay type: functional, cell-based

pIC50 [4]: 6.35 | inhibition [5]: Active | inhibition [9]: Dose-dependent effect | pIC50 [15]: 6.74 | pIC50 [18]: 6.66 | pIC50 [29]: 6.55
SMILES: C=C1C(=O)[C@@]23C(=O)[C@@H]4OC[C@]5(C=CCC(C)(C)[C@@H]45)[C@@H]2CC[C@@H]1[C@H]3OC(=O)/C=C/c1ccncc1
Activity [1]: inactive | Activity [2]: Active | Activity [3]: 74.1% | Activity [6]: Active | Activity [7]: Active | Activity [8]: Dose-dependent effect | Activity [10]: 67.3% | inhibition [11]: Dose-dependent effect | Activity [12]: 20.74% | Activity [13]: 0.46% | Activity [14]: 45.87% | viability at 200 µM [16]: 50.4% | Activity [17]: 0.66% | Activity [19]: Non-Toxic | inhibition [20]: Dose-dependent effect | Activity [21]: 26.78% | Activity [22]: 14.87% | inhibition [23]: Dose-dependent effect | Activity [24]: Dose-dependent effect | inhibition [25]: Dose-dependent effect | inhibition [26]: inactive | Activity [27]: Active | Activity [28]: Active | Activity [30]: Active
